Data: patent US6469027B1, “N-methyl-D-aspartate (NMDA) receptor blockers for the prevention of atherosclerosis” (The Board of Regents of the University of Nebraska, priority 1996, dated 2002)

Tested on: N-VSMC
Assay: Cell proliferation (cell number) of N-VSMC cultures
Type: cell-based, chicken
Settings: 100 μM H[cys]; between day 6 and 10; 1% serum
Description: FIGS. 5A and 5B are graphs illustrating cell growth and DNA synthesis of N-VSMC cultures. (A) Cells were cultured in M199 supplemented with 1% FBS in the presence and absence of 100 μM H[cys]. The medium was renewed every three days and cell numbers were determined by Coulter counter or emocytometer. Each point represents the mean of quadruplicate samples counted six times. (B) Cells were grown to confluency, growth arrested in M199 and 1 μg/ml of bovine serum albumin for two days. Cultures were exposed to various concentrations of H[cys] (0.01-1000 μM) for 30 h, pulse labeled for 6 h with 2 μCi/ml of [^3H]thymidine. The amount of [^3H]thymidine incorporation was determined by scintillation spectrophotometry. Results are shown as the mean of ±S.E.M.
FIGS. 7A-7C are graphs illustrating the effect of H[cys] on diacylglycerol content in N-VSMC. (A) Time course of changes of membrane diacylglycerol content cell treated with 100μM H[cys] for the various times. Cells were recovered, membrane lipids extracted and diacylglycerol amounts determined as described in Methods. Results are expressed as the mean ± standard error of quadruplicate incubations from six independent experiments. (B) Effects of varying concentrations of H[cys] on diacylglycerol synthesis. Cells were treated for 30 min with different concentrations of H[cys] and membrane lipids were isolated and the diacylglycerol content determined. (C) Effect of PKC inhibitors on H[cys] mediated cell proliferation. N-VSMC cultures were grown in 1% FBS and 100 μM H[cys] in the presence and absence of staurosporine and cheleyrithrine chloride for the times (days-d) indicated. Cells were counted in quadruplicate in a Coulter counter every three days. Values represent the mean ±S.D. from four independent experiments.
Smooth Muscle Culture: The thoracic (N) and abdominal (M) aorta of normal 16 and 18-day embryos were cleaned of fat, and the intima-media was isolated from the adventitia. The intima-media was enzymatically dispersed into a single cell suspensions by a combination of collagenase and elastase followed by trypsin. VSMC were placed in primary culture at a constant density of 2×10^4 cells/cm^2 in multiwell plates or 100 mm culture plates in Medium 199 supplemented with 10% fetal bovine serum (FMS) and 2 mM glutamine, in an atmosphere of 95% air: 5% Co2 at 37° C. Primary cultures were grown for 7 days before they were seeded into first passage at the same cell density and grown to confluence. Experiments were carried out between passages 3-6. Experimental conditions for all cells included 48 h in Medium 199 supplemented with 1% FBS prior to initiating and experiment.

`N[C@@H](CCS)C(=O)O` [homocysteine] gave a cell number increased of 9 fold.
